Results as given in the SangsterLogP compilation.

Assay: method code G-HPLC, from DOI: 10.1021/je00030a025

Structure (SMILES) | logP
Fc1cccc(CCl)c1 | 2.77
CCCCCCC(C)=O | 2.76
C=CCCBr | 2.53
CCCCCCCC(C)=O | 3.18
CC(=O)OCCBr | 1.11
CCCCCc1ccccc1 | 4.9
O=Cc1ccco1 | 0.52

Assay: method code G-GLC, from DOI: 10.1021/je00030a025

Structure (SMILES) | logP
CCCCCCCI | 4.7
CCCCCCCC | 5.18
CCCCCCCO | 2.57
CCCCCCCCBr | 4.89
C=CCCCCC | 3.99
C#CCCCC | 2.73
CCCCCCCCl | 4.15
CCCCCCBr | 3.8
CCC(=O)CC | 0.99
ClCCCBr | 2.18
C=CCCCCCCC | 5.15
Fc1ccccc1CCl | 2.67
